IC50 data for 13 compounds are collected here from patent publication US8933113B2 (Merck Sharp & Dohme Corp., priority 2011, dated 2015).

The target in this test is T1, full-length human Mineralocorticoid Receptor (MR) (Homo sapiens, UniProt P08235).
T1 construct: host or cells: PathHunter CHO-K1 cells
T1 sequence (P08235 1-984): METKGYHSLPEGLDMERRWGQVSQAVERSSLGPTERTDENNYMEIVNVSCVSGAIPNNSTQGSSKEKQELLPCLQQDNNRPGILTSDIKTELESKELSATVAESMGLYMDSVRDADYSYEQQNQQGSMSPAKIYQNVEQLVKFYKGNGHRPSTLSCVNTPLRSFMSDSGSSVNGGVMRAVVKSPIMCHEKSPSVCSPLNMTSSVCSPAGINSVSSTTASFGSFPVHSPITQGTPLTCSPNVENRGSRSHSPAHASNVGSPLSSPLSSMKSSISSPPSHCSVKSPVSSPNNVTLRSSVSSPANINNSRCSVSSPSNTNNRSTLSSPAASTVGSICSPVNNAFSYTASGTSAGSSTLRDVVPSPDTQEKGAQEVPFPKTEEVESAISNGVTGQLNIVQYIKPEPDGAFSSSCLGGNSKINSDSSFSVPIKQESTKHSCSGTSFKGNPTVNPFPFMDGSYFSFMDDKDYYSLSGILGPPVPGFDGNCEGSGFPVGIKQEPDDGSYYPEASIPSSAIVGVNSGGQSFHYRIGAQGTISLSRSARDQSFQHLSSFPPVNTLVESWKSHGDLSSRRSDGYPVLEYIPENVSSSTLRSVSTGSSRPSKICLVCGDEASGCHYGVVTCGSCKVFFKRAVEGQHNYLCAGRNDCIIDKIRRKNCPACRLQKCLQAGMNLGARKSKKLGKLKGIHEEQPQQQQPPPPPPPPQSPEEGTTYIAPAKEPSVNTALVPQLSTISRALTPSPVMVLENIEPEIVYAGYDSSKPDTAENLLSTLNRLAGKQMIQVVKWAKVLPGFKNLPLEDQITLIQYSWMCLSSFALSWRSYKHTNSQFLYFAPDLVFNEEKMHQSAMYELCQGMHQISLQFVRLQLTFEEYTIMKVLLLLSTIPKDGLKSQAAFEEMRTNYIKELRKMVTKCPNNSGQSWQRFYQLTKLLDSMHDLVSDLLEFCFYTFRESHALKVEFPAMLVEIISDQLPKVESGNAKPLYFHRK
The test is described as follows: human MR NH Pro assay (PathHunter Protein:Protein interaction assay), MR antagonist activity. The test is classed as cell-based. The settings on record: PathHunter CHO-K1 cells overexpressing human MR; aldosterone about 0.3 nM; 6 hours at 37° C.; luminescence; read-out: Primary Assay IP rating (IP = inflection point for a given dose-response titration curve). Put shortly: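 PathHunter enzyme-complementation assay in cells of full-length human MR recruitment of a coactivator peptide, run in antagonist mode against aldosterone at about 0.3 to 1.0 nM final. Compounds are in a 10-point, 1:3 series from a 4.4 mM top. Incubation is 6 h at 37° C, then detection reagent for 1 h at RT, with a luminescence read-out.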

Some results are limits rather than exact numbers.

Take `CCC(CCSC)(c1ccc(Cl)cc1)n1ccc2c(NS(C)(=O)=O)cccc21` (stereo not shown) [Compound 166, N-(1-(3-(4-chlorophenyl)-1-(methylthio)pentan-3-yl)-1H-indol-4-yl)methanesulfonamide]: the IC50 is below 100 nM.
With `CCC(CCC(=O)OC)(c1ccc(Cl)cc1)n1ccc2c(NS(C)(=O)=O)cccc21` (stereo not shown) [Compound 167, Methyl 4-(4-chlorophenyl)-4-(4-(methylsulfonamido)-1H-indol-1-yl)hexanoate] the figure was below 100 nM; with `CCC(CCC(=O)OC)(c1ccc(Cl)cc1)n1ncc2c(NS(C)(=O)=O)cccc21` (stereo not shown) [Compound 168, methyl 4-(4-chlorophenyl)-4-(4-(methylsulfonamido)-1H-indazol-1-yl)hexanoate], below 100 nM.
In the case of `CCC(CCCO)(c1ccc(Cl)cc1)n1ccc2c(NS(C)(=O)=O)cccc21` (stereo not shown) [Compound 169, N-(1-(3-(4-chlorophenyl)-6-hydroxyhexan-3-yl)-1H-indol-4-yl)methanesulfonamide] it was below 100 nM; in that of `CCC(CCCF)(c1ccc(Cl)cc1)n1ccc2c(NS(C)(=O)=O)cccc21` (stereo not shown) [Compound 170, N-(1-(3-(4-chlorophenyl)-6-fluorohexan-3-yl)-1H-indol-4-yl)methanesulfonamide], below 100 nM; in that of `CCC(/C=C/C(=O)OC)(c1ccc(Cl)cc1)n1ncc2c(NS(C)(=O)=O)cccc21` (stereo not shown) [Compound 171, (E)-methyl 4-(4-chlorophenyl)-4-(4-(methylsulfonamido)-1H-indazol-1-yl)hex-2-enoate], 100 to 500 nM.
With `CCC(CCC(C)=O)(c1ccc(Cl)cc1)n1ncc2c(NS(C)(=O)=O)cccc21` (stereo not shown) [Compound 172, N-(1-(3-(4-chlorophenyl)-6-oxoheptan-3-yl)-1H-indazol-4-yl)methanesulfonamide] the figure was below 100 nM; with `CCC(c1ccc(Cl)cc1)(C(O)COC)n1ccc2c(NS(C)(=O)=O)cccc21` (stereo not shown) [Compound 173, N-(1-(3-(4-chlorophenyl)-2-hydroxy-1-methoxypentan-3-yl)-1H-indol-4-yl)methanesulfonamide], 100 to 500 nM.
For `CCC(CC)(c1ccc(Cl)cc1)n1ccc2c(NS(C)(=O)=O)cccc21` [Compound 174, N-(1-(3-(4-chlorophenyl)pentan-3-yl)-1H-indol-4-yl)methanesulfonamide], the IC50 lay within 100 to 500 nM.
Turning to `C=CC(CC)(c1ccc(Cl)cc1)n1ccc2c(NS(C)(=O)=O)cccc21` (stereo not shown) [Compound 175, N-(1-(3-(4-chlorophenyl)pent-1-en-3-yl)-1H-indol-4-yl)methanesulfonamide], the IC50 fell in the range of 100 to 500 nM.
With `CCC(CN)(c1ccc(Cl)cc1)n1ccc2c(NS(C)(=O)=O)cccc21` (stereo not shown) [Compound 177, N-(1-(1-amino-2-(4-chlorophenyl)butan-2-yl)-1H-indol-4-yl)methanesulfonamide], the IC50 fell in the range of 100 to 500 nM.
For the compound `CCC(C#N)(c1ccc(Cl)cc1)n1ccc2c(NS(=O)(=O)CC)cccc21` (stereo not shown) [Compound 178, N-(1-(1-(4-chlorophenyl)-1-cyanopropyl)-1H-indol-4-yl)ethanesulfonamide], the IC50 was in the range of 100 to 500 nM.
For “N-(6-fluoro-1-(2-hydroxy-3-(4-(trfluoromethyl)phenyl)pentan-3-yl)-1H-indazol-4-yl)methanesulfonamide [Compound 112]”, the IC50 was below 100 nM.
